Consider 2 compounds from article PMC8113231 (Nature Communications, 2021).

Molecules are shown by their SMILES. Where a SMILES comes first, the peptide text is derived from it. Bridges are numbered along the chain shown (N, C = ends).

Test [1] concerns A/whooper swan/Mongolia/3/05 (H5N1/Mongolia; clade 2.2). Description: microbe, parasite or virus in culture. The class given is cell-based. The settings on record: Influenza A virus, H5N1, MDCK; 48–72 h; read-out: EC50, plaque reduction, H5N1/Mongolia (clade 2.2).
Test [2] relates to A/Adachi/2/57 (H2N2). Description: microbe, parasite or virus in culture. The settings on record: Influenza A virus, H2N2, MDCK; 48–72 h; read-out: EC50, plaque reduction, H2N2/Adachi. The class given is cell-based.
Test [3] deals with A/duck/Hokkaido/Vac-3/07 (H5N1/Vac-3). Briefly: microbe, parasite or virus in culture. The settings on record: Influenza A virus, H5N1, MDCK; 48–72 h; read-out: EC50, plaque reduction, H5N1/Vac-3. The class given is cell-based, influenza A virus.
The test system of test [4] is A/Narita/1/09 (H1N1/Narita). Description: microbe, parasite or virus in culture. The class given is cell-based. The settings on record: Influenza A virus, H1N1, MDCK; 48–72 h; read-out: EC50, plaque reduction, H1N1/Narita.
Test [5] deals with A/Puerto Rico/8/34 (H1N1/PR8). Description: microbe, parasite or virus in culture. The settings on record: Influenza A virus, MDCK; 48–72 h; read-out: EC50, plaque reduction, H1N1/PR8. The class given is cell-based.
Test [6] deals with A/whooper swan/Hokkaido/1/08 (H5N1/Hokkaido; clade 2.3.2.1). Briefly: microbe, parasite or virus in culture. The class given is cell-based. As to conditions: Influenza A virus, H5N1, MDCK; 48–72 h; read-out: EC50, plaque reduction, H5N1/Hokkaido (clade 2.3.2.1).
Test [7] has as its system A/whooper swan/Hokkaido/1/08 (H5N1). More on the design: species or system BALB/c mice. As to conditions: mouse, in vivo.
Test [8] relates to A/Tokyo/2619/09 (H1N1/Tokyo2619). Briefly: microbe, parasite or virus in culture. The class given is cell-based. As to conditions: Influenza A virus, H1N1, MDCK; 48–72 h; read-out: EC50, plaque reduction, H1N1/Tokyo2619.
The test system of test [9] is H1N1/Tokyo2619. The class given is cell-based, influenza A virus.
The test system of test [10] is H5N1/Vac-3. The class given is cell-based, influenza A virus.

Consider `CC(=O)N[C@H]1[C@H]([C@H](O)[C@H](O)CO)OC(C(=O)O)=C[C@@H]1N=C(N)N` [zanamivir], for which the EC50 in test [1] was under 0.01 µM; in test [2] it was 0.06 µM; in test [3], 0.042 µM; in [4], over 1 µM; in test [5], 0.115 µM; in [6], under 0.01 µM. Also, the EC50 in test [8] was over 1 µM. Further, the “Survival outcome, delayed administration” value in test [7] was “all mice in the zanamivir-treated group died”.

For `CC[C@H](C)[C@@H]1NC(=O)[C@H](C)NC(=O)[C@H](Cc2c[nH]c3ccccc23)NC(=O)[C@H](CCC(=O)O)NC(=O)[C@H](CC(C)C)NC(=O)[C@@H]2CCCN2C(=O)[C@H](Cc2ccccc2)NC(=O)[C@H](CCCCN)NC(=O)[C@H](Cc2c[nH]c3ccccc23)NC(=O)[C@H](CC(N)=O)NC(=O)[C@H](C(C)C)NC(=O)CSC[C@@H](C(=O)NCC(N)=O)NC(=O)[C@H](Cc2ccc(O)cc2)NC(=O)[C@H](CCCNC(=N)N)NC1=O` [iHA-12sf, reference compound] ({CH2CO}-VNWKFPLEWAIRYCG-NH2; thioether N-14), the “H1N1/Tokyo2619 virus-mediated RBC membrane fusion” value in [9] is recorded as “did not reduce RBC membrane fusion”. In [10], the “H5N1/Vac-3 virus-mediated RBC membrane fusion” value was “did not reduce RBC membrane fusion”.
